Assays:
[1] = test system: P. falciparum female gametocytes; experiment: P. falciparum Dual Gamete Formation Assay (PfDGFA), female readout (Pfs25-positive female gametes); assay type: cell-based, Plasmodium falciparum NF54; conditions: for Average inhibition female (%): average of replicates; for % inhibition female (individual replicates) R1: replicate R1; for % inhibition female (individual replicates) R3: replicate R3; for % inhibition female (individual replicates) R4: replicate R4
Outline: (§1)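 Read-outs are automated image counts of exflagellation centres (brightfield, 10 frames over 1 s) and Pfs25-positive female gametes (Cy3 fluorescence).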

[2] = test system: P. falciparum male gametocytes; experiment: P. falciparum Dual Gamete Formation Assay (PfDGFA), male readout (exflagellation); assay type: cell-based, Plasmodium falciparum NF54; conditions: for Average inhibition male (%): average of replicates; for % inhibition male (individual replicates) R1: replicate R1; for % inhibition male (individual replicates) R3: replicate R3; for % inhibition male (individual replicates) R4: replicate R4; for Activity: hit = >50% inhibition in male or female readout in at least 3 replicates, 0 = no class assigned
Outline: as §1

[3] = 2µM, 24h preincubation with gametocytes prior to induction of gametogenesis
[4] = 2µM, 24h preincubation, number of replicates with >50% inhibition in the female readout
[5] = 2µM, 24h preincubation, number of replicates with >50% inhibition in the male readout
[6] = PfDGFA at 2µM, 24h preincubation with gametocytes prior to induction of gametogenesis
[7] = PfDGFA at 2µM, 24h preincubation
[8] = PfDGFA at 2µM, 24h preincubation with gametocytes
[9] = 2µM, 24h preincubation, hits selected on >50% inhibition in the female readout across replicates
[10] = 2µM, 24h preincubation, hits selected on >50% inhibition in the male readout across replicates

SMILES: CCc1ccccc1-c1csc(C(=O)NCC2CCN(Cc3ccc(C(C)(C)C)cc3)C2)c1.O=C(O)C(F)(F)F (stereo not shown) [TCMDC-134448]
- Average inhibition female (%) [1, 3]: 31.2%
- % inhibition female (individual replicates) R1 [1, 3]: 30.8%
- % inhibition female (individual replicates) R3 [1, 3]: 36.1%
- % inhibition female (individual replicates) R4 [1, 3]: 25.0%
- HitlevelF [1, 4]: 0
- Average inhibition male (%) [2, 3]: -3.3%
- % inhibition male (individual replicates) R1 [2, 3]: 5.2%
- % inhibition male (individual replicates) R3 [2, 3]: -15.7%
- % inhibition male (individual replicates) R4 [2, 3]: -8.5%
- HitlevelM [2, 5]: 0

SMILES: COc1cccc(OC)c1CN1CCC(N(C)CCCCCCCCN2CCC(OC(=O)Nc3ccccc3-c3ccccc3)CC2)CC1 [TCMDC-134684]
- Average inhibition female (%) [1, 3]: 31.6%
- % inhibition female (individual replicates) R1 [1, 3]: 24.1%
- % inhibition female (individual replicates) R3 [1, 3]: 24.2%
- % inhibition female (individual replicates) R4 [1, 3]: 37.8%
- HitlevelF [1, 4]: 0
- Average inhibition male (%) [2, 3]: 52.6%
- % inhibition male (individual replicates) R1 [2, 3]: 48.0%
- % inhibition male (individual replicates) R3 [2, 3]: 25.4%
- % inhibition male (individual replicates) R4 [2, 3]: 71.6%
- HitlevelM [2, 5]: 2

SMILES: COc1ccc(NC(=O)[C@H](Cc2ccccc2)Nc2cc(C)nc(NCCc3ccccn3)n2)cc1.O=C(O)C(F)(F)F [TCMDC-134746]
- % inhibition female (individual replicates) R1 [1, 6]: 14.8%
- % inhibition female (individual replicates) R3 [1, 6]: -15.3%
- % inhibition female (individual replicates) R4 [1, 6]: -1.8%
- Average inhibition female (%) [1, 7]: 1.5%
- % inhibition male (individual replicates) R1 [2, 6]: -7.8%
- % inhibition male (individual replicates) R3 [2, 6]: -30.0%
- % inhibition male (individual replicates) R4 [2, 6]: 23.6%
- Average inhibition male (%) [2, 7]: -7.4%

SMILES: Cc1cc(N[C@@H](CC(C)C)C(=O)NCc2cccs2)nc(NCCc2cccs2)n1.O=C(O)C(F)(F)F [TCMDC-134815]
- % inhibition female (individual replicates) R1 [1, 6]: 9.6%
- % inhibition female (individual replicates) R3 [1, 6]: -33.2%
- % inhibition female (individual replicates) R4 [1, 6]: 28.8%
- Average inhibition female (%) [1, 7]: 0.8%
- % inhibition male (individual replicates) R1 [2, 6]: 11.4%
- % inhibition male (individual replicates) R3 [2, 6]: 4.6%
- % inhibition male (individual replicates) R4 [2, 6]: 26.9%
- Average inhibition male (%) [2, 7]: 17.0%

SMILES: CN1CCC(NCc2cccc(-c3nn(C)c4nc(NC5CCCC5)ncc34)c2)CC1 [TCMDC-134840]
- Average inhibition female (%) [1, 8]: 22.7%
- % inhibition female (individual replicates) R1 [1, 8]: 22.9%
- % inhibition female (individual replicates) R3 [1, 8]: 25.6%
- % inhibition female (individual replicates) R4 [1, 8]: 7.8%
- HitlevelF ([1]; number of replicates with >50% inhibition in the female readout, 2µM): 0
- Average inhibition male (%) [2, 8]: 82.7%
- % inhibition male (individual replicates) R1 [2, 8]: 90.3%
- % inhibition male (individual replicates) R3 [2, 8]: 59.9%
- % inhibition male (individual replicates) R4 [2, 8]: 92.2%
- HitlevelM ([2]; number of replicates with >50% inhibition in the male readout, 2µM): 4

SMILES: COc1ccc(NC(=O)[C@H](CC(C)C)Nc2cc(C)nc(NCc3ccccc3C)n2)cc1.O=C(O)C(F)(F)F [TCMDC-134909]
- Average inhibition female (%) [1, 3]: 7.3%
- % inhibition female (individual replicates) R1 [1, 3]: 5.6%
- % inhibition female (individual replicates) R3 [1, 3]: -14.2%
- % inhibition female (individual replicates) R4 [1, 3]: 28.8%
- HitlevelF [1, 9]: 0
- Average inhibition male (%) [2, 3]: 9.0%
- % inhibition male (individual replicates) R1 [2, 3]: 15.3%
- % inhibition male (individual replicates) R3 [2, 3]: -6.1%
- % inhibition male (individual replicates) R4 [2, 3]: 18.9%
- HitlevelM [2, 10]: 0
- Activity [2, 7]: 0

SMILES: NS(=O)(=O)c1cccc(Nc2nc(N[C@@H]3CCNC3)nc3cc[nH]c(=O)c23)c1.O=C(O)C(F)(F)F [TCMDC-135057]
- Average inhibition female (%) [1, 3]: 3.8%
- % inhibition female (individual replicates) R1 [1, 3]: 4.1%
- % inhibition female (individual replicates) R3 [1, 3]: 1.9%
- % inhibition female (individual replicates) R4 [1, 3]: 9.1%
- HitlevelF [1, 9]: 0
- Average inhibition male (%) [2, 3]: -3.6%
- % inhibition male (individual replicates) R1 [2, 3]: -10.0%
- % inhibition male (individual replicates) R4 [2, 3]: -11.4%
- HitlevelM [2, 10]: 0
- Activity [2, 7]: 0

Source: article PMC10584170, “Machine learning-based phenotypic imaging to characterise the targetable biology of Plasmodium falciparum male gametocytes for the development of transmission-blocking antimalarials” (PLOS Pathogens, 2023)
